{
  "source": "patent US11752111B2",
  "about": "“Use of cannabidivarin in the treatment of autism spectrum disorder, associated disorders and schizophrenia” (GW Research Limited, priority 2016, dated 2023)",
  "key": {"Fmr1 KO mice": {"tested_on": "Fmr1 KO mice", "assay": "Audiogenic seizure susceptibility, Fmr1 KO (FXS) mice", "format": "in vivo, mouse", "conditions": "for audiogenic seizures: FXS mice PND21", "experimental": "This trait was evaluated in PND21 mice after acute administration of the compounds or its vehicle, 30 min before starting the procedure. To measure audiogenic seizure sensitivity mice were placed individually into a novel environment, a glass cylinder (40 cm high, 16 cm diameter) and allowed to explore for 1 min. Next, a bell (100 dB) was rung for 30 sec and seizure activity scored according to the following scale: no response, 0; wild running, 1; clonic seizure, 2; tonic seizure, 3; status epilepticus/respiratory arrest/death, 4.\nOn postnatal day 21 (PND21) WT and Fmr1 KO mice were injected with CBDV (2, 10, 20 or 100 mg/kg) or vehicle, 30 min before exposure to a bell ring (100 dB). Mice exposed to this noise for 30 sec ceased from their normal exploratory behaviour and reacted with gradually to wild-running, clonic seizure, tonic seizure or death. The maximum response was annotated for each mouse as detailed in Table 2 below. A score was calculated according to the severity of the symptoms as explained in the Methods section."}, "VPA-exposed rats": {"tested_on": "VPA-exposed rats", "assay": "Short-term memory, novel object recognition test, prenatal VPA model", "format": "in vivo, rat", "experimental": "Pregnant Sprague-Dawley rats (Charles River, Calco, Italy), received a single intraperitoneal injection of 500 mg/kg sodium valproate on the 12.5 day after conception, and control females were injected with physiological saline at the same time. Sodium valproate (Sigma Aldrich, Milan, IT) was dissolved in saline at a concentration of 250 mg/ml.\nCBDV was dissolved in ethanol, cremophor and saline (1:1:18). Symptomatic treatment with CBDV at doses of 0.2, 2, 20, and 100 mg/kg/day i.p. was performed starting from PND 34 (early adolescence) till 56 (early adulthood), both in male and female offspring of dams injected with VPA 500 mg/kg (or vehicle) on day 12.5 after conception. […]\nShort-term memory: The experimental apparatus used for the object recognition test was an open-field box (43×43×32 cm) made of Plexiglas, placed in a dimly illuminated room. The experiment was performed and analysed as previously described (Zamberletti et al, 2014). […]\nEach animal was placed in the arena and allowed to explore two identical previously unseen objects for 5 minutes (familiarization phase). […] During the test phase the time spent exploring the familiar object (Ef) and the new object (En) was videotaped and recorded separately by two observers blind to the treatment groups and the discrimination index was calculated as follows: [(En−Ef)/(En+Ef)]×100."}, "MeCP2 KO mice": {"tested_on": "MeCP2 KO mice", "assay": "Novel Object Recognition test, short- and long-term memory, Rett syndrome model", "format": "in vivo, mouse", "experimental": "Furthermore, the efficacy of CBDV in reverting/attenuating the short- and long-term memory deficits present in these mice was evaluated. The Novel Object Recognition (NOR) test was performed before the starting of the treatment Post Natal Day 28 (PND 28), at PND 41 when the first motor symptoms appear and at PND 56 and 66 when the disease is fully manifested.\nAt PND 28, 41, 56 and 66 the effect of CBDV on short- and long-term memory deficits was investigated through the Novel Object Recognition (NOR) test.\nThe experimental apparatus used for the Novel Object Recognition test was an open-field box (43×43×32 cm) made of Plexiglas, placed in a dimly illuminated room. Animals performed each test individually.\nBriefly, each animal was placed in the arena and allowed to explore two identical previously unseen objects for 10 minutes (familiarization phase). After an inter-trial interval of 30 minutes and 24 hours one of the two familiar objects was replaced by a novel, previously unseen object and mice were returned to the arena for the 10-minute test phase.\nDuring the test phase the time spent exploring the familiar object (Ef) and the new object (En) was recorded separately by two observers blind to the groups and the discrimination index was calculated as follows: [(En−Ef)/(En+Ef)]×100."}, "PCP-treated rats": {"tested_on": "PCP-treated rats", "assay": "Novel object recognition test, sub-chronic PCP model of schizophrenia", "format": "in vivo, rat", "experimental": "Female hooded-Lister rats were used for this experiment. Rats were housed in groups of 5 under standard laboratory conditions under a 12 hr light: dark cycle, lights on at 0700 hr. Testing was carried out in the light phase.\nRats were randomly assigned to two treatment groups and treated with vehicle, n=20 (distilled water, i.p.) or Phencyclidine hydrochloride (PCP), n=100 (2 mg/kg, i.p. twice daily for 7-days). PCP was dissolved in distilled water. This was followed by a 7-day wash out period before the rats were tested following acute treatment with CBDV, risperidone or vehicle.\nRisperidone (0.1 mg/kg) was dissolved in a minimum volume of acetic acid, made up to volume with distilled water and pH adjusted to 6 with 0.1M NaOH and administered via the i.p. route in a volume of 1 ml/kg, 60 min prior to testing.\nCBDV at 2, 10 or 20 mg/kg was dissolved in 2:1:17 (Ethanol:Cremofor:Saline 0.9%) and administered via the i.p. route in a volume of 5 ml/kg, 60 min prior to testing.\nRats were allowed to habituate to the empty test box and the behavioural test room environment for 1h on day 1. Prior to behavioural testing on day 2 rats are given a further 3 min habituation.\nFollowing the 3 min habituation period, the rats are given two 3 min trials (T1 and T2) which are separated by a 1 min inter-trial interval in the home cage during which the objects are changed. Behaviour in all trials was recorded on video for subsequent blind scoring.\nIn this trial, the animals are allowed to explore two identical objects (A1 and A2) for 3 min.\nIn this trial, the animals explore a familiar object (A) from T1 and a novel object (B) for 3 min. The familiar object presented during T2 is a duplicate of the object presented in T1 in order to avoid any olfactory trails.\nThe object exploration is defined by animals licking, sniffing or touching the object with the forepaws whilst sniffing, but not leaning against, turning around, standing or sitting on the object. The exploration time (s) of each object (A, B, familiar and novel) in each trial are recorded using two stopwatches and the following factors are calculated:\nDiscrimination index (DI), which is calculated as shown below: […]"}, "[1]": {"conditions": "FXS (Fmr1 KO) PND21, CBDV 2 mg/kg acute, n = 5"}, "[2]": {"conditions": "FXS (Fmr1 KO) PND21, CBDV 10 mg/kg acute, n = 5"}, "[3]": {"conditions": "FXS (Fmr1 KO) PND21, CBDV 20 mg/kg acute, n = 5"}, "[4]": {"conditions": "FXS (Fmr1 KO) PND21, CBDV 100 mg/kg acute, n = 5"}},
  "note": "“Also recorded” adds a separate entry of the source. Like-named read-outs stand apart in the source and are kept apart here.",
  "data": [
    {"smiles": "C=C(C)[C@@H]1CCC(C)=C[C@H]1c1c(O)cc(CCC)cc1O", "note": "[CBDV, Cannabidivarin]", "values": [
      {"measurement": "maximum response: No response (number of mice)", "setting": "Fmr1 KO mice", "result": 2},
      {"measurement": "maximum response: Clonic seizure (number of mice)", "setting": "Fmr1 KO mice; [1]", "result": 0},
      {"measurement": "maximum response: Death (number of mice)", "setting": "Fmr1 KO mice; [1]", "result": 0},
      {"measurement": "maximum response: Tonic seizure (number of mice)", "setting": "Fmr1 KO mice; [1]", "result": 2},
      {"measurement": "maximum response: Wild running (number of mice)", "setting": "Fmr1 KO mice; [1]", "result": 1},
      {"measurement": "maximum response: Clonic seizure (number of mice)", "setting": "Fmr1 KO mice; [2]", "result": 0},
      {"measurement": "maximum response: Death (number of mice)", "setting": "Fmr1 KO mice; [2]", "result": 0},
      {"measurement": "maximum response: No response (number of mice)", "setting": "Fmr1 KO mice; [2]", "result": 0},
      {"measurement": "maximum response: Tonic seizure (number of mice)", "setting": "Fmr1 KO mice; [2]", "result": 2},
      {"measurement": "maximum response: Wild running (number of mice)", "setting": "Fmr1 KO mice; [2]", "result": 3},
      {"measurement": "maximum response: Clonic seizure (number of mice)", "setting": "Fmr1 KO mice; [3]", "result": 0},
      {"measurement": "maximum response: Death (number of mice)", "setting": "Fmr1 KO mice; [3]", "result": 0},
      {"measurement": "maximum response: No response (number of mice)", "setting": "Fmr1 KO mice; [3]", "result": 2},
      {"measurement": "maximum response: Tonic seizure (number of mice)", "setting": "Fmr1 KO mice; [3]", "result": 2},
      {"measurement": "maximum response: Wild running (number of mice)", "setting": "Fmr1 KO mice; [3]", "result": 1},
      {"measurement": "maximum response: Clonic seizure (number of mice)", "setting": "Fmr1 KO mice; [4]", "result": 0},
      {"measurement": "maximum response: Death (number of mice)", "setting": "Fmr1 KO mice; [4]", "result": 0},
      {"measurement": "maximum response: No response (number of mice)", "setting": "Fmr1 KO mice; [4]", "result": 5},
      {"measurement": "maximum response: Tonic seizure (number of mice)", "setting": "Fmr1 KO mice; [4]", "result": 0},
      {"measurement": "maximum response: Wild running (number of mice)", "setting": "Fmr1 KO mice; [4]", "result": 0},
      {"measurement": "audiogenic seizures", "setting": "Fmr1 KO mice; acute 100 mg/kg", "result": "remained seizure free; also recorded: completely eliminate the seizures"},
      {"measurement": "audiogenic seizures", "setting": "Fmr1 KO mice; acute lower doses (2, 10, 20 mg/kg)", "result": "experienced seizures of varying severity"},
      {"measurement": "short-term memory deficit, discrimination index (FIG. 2C)", "setting": "VPA-exposed rats; 2, 20 and 100 mg/kg, male and female VPA rats", "result": "completely and significantly reversed"},
      {"measurement": "recognition memory per se", "setting": "VPA-exposed rats; vehicle-treated (non VPA) rats", "result": "without affecting per se recognition memory"},
      {"measurement": "long-term memory in the NOR test (FIG. 10)", "setting": "MeCP2 KO mice; 2, 20 and 200 mg/kg, 24 hours inter-trial interval, KO mice", "result": "significantly counteract the cognitive impairment"},
      {"measurement": "short-term memory in the NOR test (FIG. 9)", "setting": "MeCP2 KO mice; 2, 20 and 200 mg/kg, each time point (PND 41, 56, 66), 30 min inter-trial interval, KO mice", "result": "significantly reverted the cognitive impairment"},
      {"measurement": "long-term recognition memory in the NOR test (FIG. 10)", "setting": "MeCP2 KO mice; WT littermates", "result": "without affecting recognition memory"},
      {"measurement": "short-term recognition memory in the NOR test (FIG. 9)", "setting": "MeCP2 KO mice; WT littermates", "result": "without affecting recognition memory"},
      {"measurement": "discrimination index (DI) (FIG. 17)", "setting": "PCP-treated rats; 10 and 20 mg/kg, PCP rats", "result": "statistically significant increase in the DI"},
      {"measurement": "time spent investigating two identical objects in Trial 1 (FIG. 16A)", "setting": "PCP-treated rats; CBDV 2, 10 or 20 mg/kg i.p. 60 min prior to testing", "result": "no real preference"},
      {"measurement": "discrimination between familiar and novel objects, Trial 2 (FIG. 16B)", "setting": "PCP-treated rats; CBDV 10 and 20 mg/kg i.p., PCP treated rats", "result": "reverse the cognitive dysfunction"}
    ]}
  ]
}
